Experimental data reported in US7442393B2, “Herbal extracts of Salicornia species, process of preparation thereof, use thereof against tuberculosis” (priority 2003, dated 2008).

Test system: M. tuberculosis H37Rv
Assay: In vivo screening of antitubercular activity in infected mice model of experimental tuberculosis
Design: species or system Female swiss mice
Conditions: 25 mg/kg body weight for 10 days after infection

C[C@@H]1CN(c2c(F)c(N)c3c(=O)c(C(=O)O)cn(C4CC4)c3c2F)C[C@H](C)N1 [sparfloxicin]
general health and body weight of infected mice: healthy, gained weight | mortality of infected mice: none of the mice died
